Data taken from article PMC3197640, “Human Engineered Heart Tissue as a Versatile Tool in Basic Research and Preclinical Toxicology” (PLoS ONE, 2011).
Read-outs that look alike come from different tables or passages of the source.

Assays:
hERG channel = settings: cited from earlier work
[1] = tested on: human engineered heart tissue (hEHT); settings: for Threshold concentration at which the compound significantly decreased relaxation velocity / Threshold concentration inducing irregular beating patterns (RR-scatter): human, 30 min
Experimental: Calcium-concentration response curves were established in DMEM, 1% penicillin/streptomycin, 10 mM HEPES, and 100 µM acetylcysteine with calcium concentrations adjusted to the desired final concentration (0.2–3.0 mmol/L). Equilibration time was 20 minutes. Measurements were performed under spontaneous activity by automated video-optical recording and analysis (customized software, Consulting Team Machine Vision) as previously described. Contractile force F was calculated from the degree of post deflection δ (µm), silicone post length (L) and radius (R) and elastic modulus (E) by the formula F = 3πER^4δ/4L^3 [29]. Contraction- and relaxation velocities were calculated as the average maximal steepness of twitch contraction or relaxation, respectively. Each value represents the mean of all measurable contraction twitches in the recording period of 60 seconds per hEHT.
EHTs were equilibrated in DMEM, 1% penicillin/streptomycin, 10 mM HEPES, 100 µM acetylcysteine for one hour. […] Isoprenaline and carbachol were used at 100 nM and 10 µM, respectively.
Intervals between two contractions were determined for all recordings. […] Interval scatter was therefore defined as the length between 10th and 90th percentile (interdecile range, IDR). Statistical difference between groups of biological replicas were determined with Mann-Whitney U Test (*P<0.05).

[2] = tested on: hESC-derived cardiomyocytes (EBs and EHTs); experiment: Action potential measurements with sharp microelectrodes (zero current clamp); type: cell-based, human
[3] = read-out: Published IC50 (hERG), hERG channel assays

Structure (SMILES): NC1=N[C@H](O)[C@H]2[C@H]3O[C@]4(O)O[C@@H]([C@@H](O)[C@@]2(N1)[C@@H]4O)[C@]3(O)CO [tetrodotoxin]
- Effect on AP upstroke velocity [2]: significant decrease
- Effect on APD80 and diastolic interval [2]: significant prolongation

Structure (SMILES): [Ca+2] [calcium]
- Decrease in force ([1]; hEHT, lowering calcium from 1.8 mM (baseline) to 0.2 mM): 90%

Structure (SMILES): COC(=O)C1=C(C)NC(C)=C(C(=O)OCC(C)C)C1c1ccccc1[N+](=O)[O-] (centres unmarked) [nisoldipine]
- Effect on electrical activity and contractions ([2]; 1 µM, all spontaneously beating hESC cultures): completely interrupted

Structure (SMILES): CCN(CC)CCNC(=O)c1ccc(N)cc1 [Procainamide]
- IC50 (hERG channel; [3]): 139000 nM
- Threshold concentration at which the compound significantly decreased relaxation velocity [1]: 100000 nM
- Threshold concentration inducing irregular beating patterns (RR-scatter) [1]: 100000 nM

Structure (SMILES): Cc1cccc(CCN2CCC(C(=O)c3ccc(NS(C)(=O)=O)cc3)CC2)n1 [E-4031]
- Effect on APD ([2]; 300 nM, P<0.05, n = 4): significant prolongation

Structure (SMILES): C[N+](C)(C)CCOC(N)=O [carbachol]
- Effect on isoprenaline-induced changes in frequency and force ([1]; hEHT, 10 µM, after isoprenaline 100 nM, 0.6 mM calcium): reversed

Structure (SMILES): CC(C)NCC(O)c1ccc(O)c(O)c1 (centres unmarked) [isoprenaline]
- Effect on beating frequency ([1]; hEHT, 100 nM, 0.6 mM calcium): positive chronotropic effect
- Effect on force ([1]; hEHT, 100 nM, 0.6 mM calcium): trend towards an increase in force (not significant)
